Data set [1] relates to encephalitogenic BP10 T-cell line. Kind of data set: Adoptive EAE by BP10 line stimulated in vitro with test substance. Format: in vivo, rat. From the text: The ability of a compound to enhance T cell activity may be determined, for example, using an in vivo assay testing the effect of a given compound on the severity of adoptive (passive) EAE, namely, EAE which is induced by the injection of activated encephalitogenic T cell line to the model animal. In order to test a compound, the encephalitogenic T cells are activated in the presence of the compound prior to injection. An exemplary procedure is described in the Examples section hereinbelow.
Antigen-specific T-cell lines were established from lymph node cells that had been stimulated with myelin basic protein (MBP; 10 μg/ml) for 3 days in stimulation medium as described below. Following stimulation, the T-cell blasts were isolated on Lympho-prep (Nycomed Pharma, Oslo, Norway) and seeded in propagation medium. Propagation medium was identical to stimulation medium without autologous serum, but supplemented with fetal calf serum 10% and T-cell growth factors from the supernatant of Con A stimulated spleen cells 10% (Mor et al. (1990) J Clin Invest, 85, 1594-1598). Animals were injected intra-peritoneally with 10^7 MBP-stimulated T cells, following 6-8 cycles of in vitro stimulations. It is known that MBP-reactive lines undergo a reduction in pathogenicity after 6 or more in vitro stimulations. In some experiments the BP10 line was stimulated with phorbol myristate acetate (PMA; 50 ng/ml) and ionomycin (500 ng/ml) for 3 days in stimulation medium, without antigen-presenting cells.
Active EAE was induced by subcutaneous injection of 25 μg guinea-pig MBP (GpMBP) in complete Freund's adjuvant (CFA). CFA was prepared by adding 4 mg/ml Mycobacterium tuberculosis H37Ra (Difco, Mich.) to incomplete Freund's adjuvant (IFA). Adoptive EAE was transferred by intra-peritoneal injection of guinea-pig MBP-activated cells of the BP10 line as described in Mor et al. (1993) J Clin Invest, 92, 2199-2206. […] Clinical scoring was: +1, paralysis of tail; +1.5, paresis of posterior paws and ataxia; +2, paraplegia; +3, paralysis extending to thoracic spine; +4, a moribund state.
Treatment with cefuroxime in vivo could affect many different host agents involved in EAE or AA as well as influencing the rats' bacterial flora. To test whether the antibiotic might directly modify the behavior of effector T cells, an encephalitogenic T-cell line was stimulated in the presence or absence of cefuroxime in vitro. The weakly encephalitogenic BP10 line was used, and was stimulated for 3 days with MBP in the presence or absence of cefuroxime (50 μg/ml). The activated T cells were then washed to remove the antibiotic, the T cells were injected intra-peritoneally into naïve recipient rats (10^7 per rat), and EAE was scored. The BP10 line at later stimulations was used, when its pathogenic potential is reduced, allowing to detect both suppression and enhancement of disease. […] To rule out antigen presenting cells (APC) as the target of the beta-lactam antibiotic, the encephalitogenic BP10 line was stimulated without APC using PMA (50 ng/ml) and Ionomycin (500 ng/ml) in the presence or absence of cefuroxime.

Data set [2] deals with RMA cells (T cell lymphoma of mouse origin). Kind of data set: RMA mouse tumor model. Format: in vivo. As to the method:
In the RMA mouse tumor model (T cell lymphoma of mouse origin), T cells are known to participate in tumor rejection, and thus augmenting T cell effects might enhance the animal's ability to reject the tumor implant. RMA cells were injected to C57BL/6J Ola Hsd mice (10^5 cells per mouse) (Chen et al. (1994) J Exp Med, 179:523-532). […] Tumor size was measured and recorded.
An additional experiment was carried out in the same experimental system, comparing 6-APA to clavulanic acid.

The nature of data set [3]: Dissolution in aqueous solution. Format: physicochemical.
For another data set, the system named is NOD mice. Kind of data set: Autoimmune diabetes in NOD mice. Format: in vivo, mouse. The conditions noted are these: NOD mice at 5.7 months; SC weekly; ampicillin 1300 μg, ceftriaxone 675 μg per mouse. On the procedure:
NOD mice spontaneously develop diabetes mellitus similar to type I diabetes in humans. […] The mice were followed for the development of diabetes, marked by blood sugar above 300 mg/dl on 2 measurements.

Data set [4] deals with experimental autoimmune encephalomyelitis (EAE) in rats. Kind of data set: Actively induced EAE. Format: in vivo, rat. To be noted: oral in drinking water from day 7 postinduction, daily dose 50 mg/kg, versus two control groups.
For data set [5] the following is noted: free penicillin; cited from earlier work.
In data set [6] the test system is albumin. Briefly: Pen 9 western blot of cell lines treated with penicillin. Format: cell-based. To be noted: cell lines raised in vitro.
In data set [7] the target is T1, albumin (Rattus norvegicus, UniProt P02770).
T1 construct: from tissue; host or cells: various tissues and serum of Lewis rats
Briefly: Pen 9 detection of penicillin-albumin in vivo. To be noted: Lewis rats, 50 mg/rat intraperitoneally, 2 hours later. As to the method:
Rat tissues were ground with a tissue grinder in lysis buffer. The homogenate was centrifuged 14000 g for 15 min in 4° C. and the supernatant was used for western blotting. The protein concentration was determined using the Bio-Rad Dc protein assay (Bio-Rad laboratories, Hercules, Calif.). Following electrophoresis in SDS gel in a mini-gel apparatus (Bio-Rad), the gels were electro-transferred to nitrocellulose membranes (Schleicher and schuell, Dassel, Germany). The nitrocellulose membranes were washed with distilled water for 5 min, and then blocked for 60 min. using a blocking solution composed of 2% bovine serum albumin (Fraction V, Sigma, St. Louis Mo.), 2.5% milk powder (Bio-Rad), Tris (Sigma) pH 7.5 10 mM, NaCl 150 mM and 0.02% thimerosal (Sigma). After 3×10 min. washes in PBS/Tween 20 (PBS/T; 0.02%, Sigma), primary antibodies ( 1/1000) were incubated with the membranes in PBS/Tween for 60 min. Following another series of washes in PBS/T (3×10 min), the membranes were incubated with a secondary antibody (Peroxidase conjugated anti rabbit or anti mouse, IgG Jackson ImmunoResearch, West Grove, Calif.) at a 1/2500 dilution in 2% milk in PBS solution for 60 min. After another 3×10 min washes, the membranes were incubated with the ECL reagent (for 60 seconds) and exposed to X-ray film. […]

The test system of a further data set is human CD3 T cells. Kind of data set: Pen 9 western blot of antibiotic-treated human T cells. The class given is cell-based. To be noted: human T cells activated by mitogen in presence of the antibiotic. For orientation: A western blot detects proteins with antibodies after separation by electrophoresis.
Data set [8] has as its target T2, 67 kDa band in human T-cell lysates (Homo sapiens, UniProt P02768).
T2 construct: endogenous in cells; host or cells: primary human CD4 or CD8 T cells from peripheral blood of healthy donors
Briefly: Radioactive penicillin binding assay. To be noted: tritium-labeled, 10 and 20 μCi, 3 days with PMA and Ionomycin; CD4 and CD8 T cell lysates. An excerpt: Tritium labeled benzylpenicillin was obtained from Amersham (Buckinghamshire, UK; 250 μCi, 1 mCi/ml). Human CD4 or CD8 T cells were stimulated in 24 well plates, 5×10^6 cells per ml, with PMA and Ionomycin for 72 hr in the presence of 10 or 20 μCi of labeled penicillin. Following stimulation, the cells were collected, lysed and separated by SDS PAGE. The gels were fixed, treated with 1M sodium salicylate, and dried. The dried gels were exposed to x-ray film (BioMax MS film) for 14 days, with intensifying screen (BioMax TranScreen, Eastman Kodak Co., New Haven Conn., USA), and were developed.
To test whether beta-lactam antibiotics might affect T-cell behavior likewise by covalently binding a key T-cell protein, purified CD4 or CD8 human T cells were incubated with 10 and 20 μCi of tritium-labeled lactam benzylpenicillin (Amersham, Buckinghamshire, UK) for 3 days during stimulation with PMA and Ionomycin. The stimulated T cells were collected, washed, lysed and their proteins were subjected to SDS-PAGE separation. Dried gels were exposed in intensifying screens to Xray film for 2 weeks at −80° C. […] The intensity of the band was stronger at the 20 μCi concentration of penicillin.

The mark [9] stands for this setting: BP10 line, same doses as penicillin.
Where [10] appears, read: 17 days after tumor injection, versus PBS treated and non-injected mice.

T2 sequence (P02768 25-609): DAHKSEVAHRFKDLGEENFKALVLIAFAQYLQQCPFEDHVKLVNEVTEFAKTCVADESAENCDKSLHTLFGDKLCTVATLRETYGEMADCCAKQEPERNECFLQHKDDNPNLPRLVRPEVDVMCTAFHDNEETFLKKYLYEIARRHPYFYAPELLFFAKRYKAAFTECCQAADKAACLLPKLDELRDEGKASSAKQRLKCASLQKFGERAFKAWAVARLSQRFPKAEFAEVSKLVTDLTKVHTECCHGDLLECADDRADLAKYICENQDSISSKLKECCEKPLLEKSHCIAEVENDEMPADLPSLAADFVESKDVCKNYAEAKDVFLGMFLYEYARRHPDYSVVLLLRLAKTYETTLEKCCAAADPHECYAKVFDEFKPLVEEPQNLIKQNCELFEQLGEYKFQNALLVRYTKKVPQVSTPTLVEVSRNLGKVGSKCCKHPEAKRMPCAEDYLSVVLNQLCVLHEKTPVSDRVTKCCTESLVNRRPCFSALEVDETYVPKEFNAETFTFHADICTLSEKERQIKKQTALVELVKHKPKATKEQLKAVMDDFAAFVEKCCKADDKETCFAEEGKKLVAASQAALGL

Turning to `CC1(C)S[C@@H]2[C@H](N)C(=O)N2[C@H]1C(=O)O` [6-APA, 6-aminopenicillanic acid], the “severity of adoptive EAE” value in [1] (setting [9]) is reported as “EAE enhancing ability, similar to penicillin”. For the same molecule, the tumor size result in data set [2] (setting [10]) is given as “smaller tumors”; in [2] (C57BL/6J mice, SC 2 μg/mouse 3 times per week, last two measurements, versus control mice), “significantly smaller”. Also, the “solubility in aqueous solution” value in [3] is given as “difficult to dissolve in aqueous solution”.
`CO/N=C(\C(=O)N[C@@H]1C(=O)N2C(C(=O)O)=C(CSc3nc(=O)c(=O)[nH]n3C)CS[C@H]12)c1csc(N)n1` [ceftriaxone] gave an incidence of diabetes with NOD mice of 60%. The “severity of adoptive EAE” value in [1] (BP10 line stimulated 3 days with MBP in presence of 50 μg/ml, 10^7 cells IP per rat) is reported as “enhanced EAE severity”.
For the molecule `CO/N=C(\C(=O)N[C@@H]1C(=O)N2C(C(=O)OC(C)OC(C)=O)=C(COC(N)=O)CS[C@H]12)c1ccco1` (stereo partly shown) [cefuroxime axetil], the “severity of actively induced EAE” value in [4] is “significantly more severe EAE”.
For the molecule `O=C(O)[C@H]1/C(=C/CO)O[C@@H]2CC(=O)N21` [clavulanic acid], the “severity of adoptive EAE (pathogenicity of BP10 line)” value in data set [1] (BP10 line stimulated with 25 μg/ml, 5 rats per group) is given as “enhanced the pathogenicity of BP10 line”. In addition, in [2] (setting [10]), the tumor size entry is recorded as “smaller tumors”.
As to `CC1(C)S[C@@H]2[C@H](NC(=O)Cc3ccccc3)C(=O)N2[C@H]1C(=O)O` [penicillin, benzylpenicillin], the half-life (commonly the time needed for the level to fall by half in the phase considered) in data set [5] is 42 min. Further, the “penicillin-modified albumin band in cell line lysates” value with albumin [6] was “could be detected in mesenchymal stem cells, dendritic cells, Jurkat, MOLT4, FAO and CEM lines”. In addition, the “67 kD band (penicilloylated albumin) in tissue lysates” value on albumin [7] was “appears in all tissues examined and is most abundant in serum”. The “reactivity of Pen 9 antibody with lysates of treated T cells” value in the data set with human CD3 T cells is listed as “reacted specifically to a major protein of the penicillin-treated T cells”. For the same molecule, the “covalent binding to T-cell protein (radioactive band on SDS-PAGE)” value in [8] is recorded as “single major penicillin-protein radioactive band was detected at 67 kD”.
`C[C@]1(Cn2ccnn2)[C@H](C(=O)O)N2C(=O)C[C@H]2S1(=O)=O` [tazobactam]: in data set [1] (setting [9]), the “severity of adoptive EAE” value is on record as “EAE enhancing ability, similar to penicillin”.

B1: Penicillin-modified rat albumin: rat albumin modified by penicillin (conjugate, UniProt P02770 25-608, looked up)
Albumin: EAHKSEIAHRFKDLGEQHFKGLVLIAFSQYLQKCPYEEHIKLVQEVTDFAKTCVADENAENCDKSIHTLFGDKLCAIPKLRDNYGELADCCAKQEPERNECFLQHKDDNPNLPPFQRPEAEAMCTSFQENPTSFLGHYLHEVARRHPYFYAPELLYYAEKYNEVLTQCCTESDKAACLTPKLDAVKEKALVAAVRQRMKCSSMQRFGERAFKAWAVARMSQRFPNAEFAEITKLATDVTKINKECCHGDLLECADDRAELAKYMCENQATISSKLQACCDKPVLQKSQCLAEIEHDNIPADLPSIAADFVEDKEVCKNYAEAKDVFLGTFLYEYSRRHPDYSVSLLLRLAKKYEATLEKCCAEGDPPACYGTVLAEFQPLVEEPKNLVKTNCELYEKLGEYGFQNAVLVRYTQKAPQVSTPTLVEAARNLGRVGTKCCTLPEAQRLPCVEDYLSAILNRLCVLHEKTPVSEKVTKCCSGSLVERRPCFSALTVDETYVPKEFKAETFTFHSDICTLPDKEKQIKKQTALAELVKHKPKATEDQLKTVMGDFAQFVDKCCKAADKDNCFATEGPNLVARSKEALA
modifications: penicillin-modified
B1: in data set [1] (BP10 line stimulated 3 days with 5 mg/ml in stimulation medium), the “severity of adoptive EAE (pathogenicity of BP10 line)” value is given as “could also enhance the encephalogenicity of the BP10 line”.

(Values after patent US9345691B2, “Beta-lactam compounds for enhancing T cell-mediated immune responses” (STEM CELL MEDICINE LTD., priority 2011, dated 2016).)
